In data set [1] the test system is Mus musculus. Nature of the data set: Toxicity in Swiss mouse assessed as prostration at 0.3 to 3 mg/kg, ip administered for 7 days measured during compound dosing. It is filed as organism-based. To be noted: in vivo, 168 h.
In data set [2] the test system is Mus musculus. In words: Toxicity in Swiss mouse assessed as body weight loss at 0.3 to 3 mg/kg, ip administered for 7 days measured during compound dosing. In kind it is organism-based. Conditions: in vivo, 168 h.
For the next data set, the system named is U-266. In words: Cytotoxicity against human U266 cells assessed as decrease in cell viability after 72 hrs by MTT assay. It is filed as cell-based. To be noted: U-266, 72 h.
Data set [3] has as its system Mus musculus. In words: Toxicity in Swiss mouse assessed as changes in fur aspects at 0.3 to 3 mg/kg, ip administered for 7 days measured during compound dosing. It is filed as organism-based. To be noted: in vivo, 168 h.
The subject of data set [4] is Mus musculus. In words: Toxicity in Swiss mouse assessed as body weight gain per day at 3 mg/kg, ip administered for 7 days measured during compound dosing. In kind it is organism-based. Conditions: in vivo, 168 h.
For data set [5], the system named is Mus musculus. In words: Pro-cognitive activity in ip dosed Swiss mouse assessed as prevention of amyloid beta (25 to 35)-induced step through latency deficit administered for 7 days measured on day 10 by passive avoidance test. It is filed as functional, organism-based.
The target in data set [6] is Acetylcholinesterase (Electrophorus electricus) (UniProt O42275). In words: Inhibition of electric eel AChE at 25 uM using ATC iodide as substrate preincubated for 4.5 mins followed by substrate addition measured after 2.5 mins by Ellman's method relative to control. On the technique in general: DTNB colorimetry detects thiols as they appear.
Acetylcholinesterase (Electrophorus electricus), sequence (O42275 24-633 limits assumed): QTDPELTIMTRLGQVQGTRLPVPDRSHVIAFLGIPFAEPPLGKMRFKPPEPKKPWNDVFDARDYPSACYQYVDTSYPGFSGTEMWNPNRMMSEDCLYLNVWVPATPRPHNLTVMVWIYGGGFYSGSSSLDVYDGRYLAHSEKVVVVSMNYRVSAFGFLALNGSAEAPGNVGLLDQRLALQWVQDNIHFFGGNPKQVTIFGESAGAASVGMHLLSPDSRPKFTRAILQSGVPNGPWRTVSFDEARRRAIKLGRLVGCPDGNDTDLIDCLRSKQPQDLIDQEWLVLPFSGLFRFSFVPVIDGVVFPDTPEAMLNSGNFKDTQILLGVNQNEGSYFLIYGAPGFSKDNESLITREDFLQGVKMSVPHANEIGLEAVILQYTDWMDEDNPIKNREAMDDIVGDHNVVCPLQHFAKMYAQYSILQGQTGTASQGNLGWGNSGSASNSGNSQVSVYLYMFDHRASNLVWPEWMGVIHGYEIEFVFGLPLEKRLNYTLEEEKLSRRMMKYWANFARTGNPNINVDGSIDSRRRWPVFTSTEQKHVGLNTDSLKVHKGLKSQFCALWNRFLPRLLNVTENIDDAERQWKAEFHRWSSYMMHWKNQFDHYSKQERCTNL
For data set [7], the system named is Mus musculus. In words: Pro-cognitive activity in Swiss mouse assessed as prevention of amyloid beta (25 to 35)-induced increase in escape latency at 1 to 3 mg/kg, ip administered for 7 days measured on day 10 by passive avoidance test. It is filed as functional, organism-based.
Data set [8] deals with Mus musculus. Nature of the data set: Toxicity in Swiss mouse assessed as body weight gain per day at 1 mg/kg, ip administered for 7 days measured during compound dosing. It is filed as organism-based. To be noted: in vivo, 168 h.
Data set [9] has as its system Mus musculus. In words: Toxicity in Swiss mouse assessed as behavioral alteration at 0.3 to 3 mg/kg, ip administered for 7 days measured during compound dosing. It is filed as organism-based. Conditions: in vivo, 168 h.
The target of the next data set is Cannabinoid receptor 1 (Homo sapiens, UniProt P21554). In words: Displacement of [3H]-[…] from human CB1 receptor expressed in CHO cell membranes at 10 uM after 3 hrs by scintillation counting method relative to control.
Cannabinoid receptor 1, sequence (P21554 whole entry): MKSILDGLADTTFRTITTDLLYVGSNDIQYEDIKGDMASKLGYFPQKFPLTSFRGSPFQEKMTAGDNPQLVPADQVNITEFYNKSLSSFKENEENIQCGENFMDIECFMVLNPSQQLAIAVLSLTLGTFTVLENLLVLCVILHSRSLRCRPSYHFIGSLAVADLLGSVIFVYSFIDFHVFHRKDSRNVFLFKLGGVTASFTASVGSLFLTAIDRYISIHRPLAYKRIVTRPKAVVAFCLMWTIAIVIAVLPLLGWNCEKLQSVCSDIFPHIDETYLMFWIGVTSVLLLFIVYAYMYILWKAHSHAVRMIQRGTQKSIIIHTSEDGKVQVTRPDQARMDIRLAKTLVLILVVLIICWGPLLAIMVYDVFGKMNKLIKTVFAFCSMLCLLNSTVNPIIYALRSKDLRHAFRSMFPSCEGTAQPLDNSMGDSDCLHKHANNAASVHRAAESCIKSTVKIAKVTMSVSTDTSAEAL
The subject of data set [10] is Mus musculus. Nature of the data set: Toxicity in Swiss mouse assessed as body weight gain per day at 0.3 mg/kg, ip administered for 7 days measured during compound dosing. In kind it is organism-based. Conditions: in vivo, 168 h.
The next data set deals with Acetylcholinesterase (Homo sapiens, UniProt P22303). Nature of the data set: Inhibition of human erythrocyte AChE at 10 uM using ATC iodide as substrate preincubated for 4.5 mins followed by substrate addition measured after 2.5 mins by Ellman's method relative to control.
Acetylcholinesterase, sequence (P22303 whole entry): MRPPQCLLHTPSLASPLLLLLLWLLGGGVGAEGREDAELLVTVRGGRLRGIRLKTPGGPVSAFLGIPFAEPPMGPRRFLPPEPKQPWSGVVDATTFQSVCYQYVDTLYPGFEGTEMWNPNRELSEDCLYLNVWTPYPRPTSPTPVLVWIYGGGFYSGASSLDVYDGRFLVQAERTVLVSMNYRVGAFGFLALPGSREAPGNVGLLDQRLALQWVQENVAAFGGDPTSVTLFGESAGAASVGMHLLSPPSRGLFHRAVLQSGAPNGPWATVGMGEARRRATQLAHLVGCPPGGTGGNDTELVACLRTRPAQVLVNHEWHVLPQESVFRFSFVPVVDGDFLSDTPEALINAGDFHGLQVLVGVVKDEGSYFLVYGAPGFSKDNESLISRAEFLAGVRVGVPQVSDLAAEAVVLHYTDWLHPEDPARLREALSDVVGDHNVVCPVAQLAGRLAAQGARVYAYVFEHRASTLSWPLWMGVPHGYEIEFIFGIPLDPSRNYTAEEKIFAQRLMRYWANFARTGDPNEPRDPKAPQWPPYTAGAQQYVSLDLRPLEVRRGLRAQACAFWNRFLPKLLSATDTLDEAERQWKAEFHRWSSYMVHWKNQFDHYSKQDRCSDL
Data set [11] deals with Mus musculus. Nature of the data set: Toxicity in Swiss mouse assessed as abdominal pain at 0.3 to 3 mg/kg, ip administered for 7 days measured during compound dosing. In kind it is organism-based. To be noted: in vivo, 168 h.

Activity calls are given as the source filed them. The rule behind the calls is not given here.

As a reminder, the IC50 is the concentration needed to halve the response being measured. A word on the inhibition: it is the drop in the measured response relative to a control, in per cent. Turning to `CCOc1ccc(Cc2nc3cc(C(=O)NCCC(C)C)ccc3n2CCC(C)C)cc1`, the Activity entry with Mus musculus [1] was “Non-Toxic”; in the data set on Mus musculus [2] it was “Non-Toxic”; in the data set with Mus musculus [3], “Non-Toxic”; with Mus musculus [4], 0 g; in the data set with Mus musculus [5], “Dose-dependent effect”; in the data set with Mus musculus [8], 0.1 g. The Activity entry is “Non-Toxic” with Mus musculus [9], 0.2 g with Mus musculus [10] and “Non-Toxic” with Mus musculus [11]. The IC50 with U-266 was above 40 µM. For the same compound, the results for the inhibition (in data set [6]; on Cannabinoid receptor 1; against Acetylcholinesterase) were 3%, 37% and 11%, respectively. Moreover, the result in the data set with Mus musculus [7] was Active.

These data come from ChEMBL document CHEMBL4020829, “Structure-Activity Relationships and Computational Investigations into the Development of Potent and Balanced Dual-Acting Butyrylcholinesterase Inhibitors and Human Cannabinoid Receptor 2 Ligands with Pro-Cognitive in Vivo Profiles” (J Med Chem, 2018).
